Experimental data taken from publication PMC5626944 (Frontiers in Pharmacology, 2017).

Target: α4β2* nAChRs (Mus musculus, UniProt O70174+Q9ERK7)
Experiment: [125I]epibatidine binding, cortical membranes
Set-up: from tissue; host or cells: cortical brain membranes (mouse)
Experimental: Brain membrane preparations were stored as pellets under buffer at -70°C or used immediately.

α4β2* nAChRs, sequence (O70174 31-629): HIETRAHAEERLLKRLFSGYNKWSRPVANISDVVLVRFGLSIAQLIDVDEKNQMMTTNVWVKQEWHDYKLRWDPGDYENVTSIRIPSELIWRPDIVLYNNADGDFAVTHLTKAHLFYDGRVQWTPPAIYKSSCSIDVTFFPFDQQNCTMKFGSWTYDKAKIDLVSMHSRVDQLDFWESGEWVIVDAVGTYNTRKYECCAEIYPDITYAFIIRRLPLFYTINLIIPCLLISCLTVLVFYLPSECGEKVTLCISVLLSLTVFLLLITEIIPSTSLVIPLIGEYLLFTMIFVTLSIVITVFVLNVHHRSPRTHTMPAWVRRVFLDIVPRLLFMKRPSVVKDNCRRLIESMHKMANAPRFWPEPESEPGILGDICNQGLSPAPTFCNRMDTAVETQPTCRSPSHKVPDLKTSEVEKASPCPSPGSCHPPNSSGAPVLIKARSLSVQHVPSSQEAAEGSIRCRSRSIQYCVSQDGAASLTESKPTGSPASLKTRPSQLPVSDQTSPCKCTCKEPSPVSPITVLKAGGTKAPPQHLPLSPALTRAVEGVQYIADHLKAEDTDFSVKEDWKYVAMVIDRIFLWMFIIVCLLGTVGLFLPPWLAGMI
α4β2* nAChRs, sequence (Q9ERK7 26-501): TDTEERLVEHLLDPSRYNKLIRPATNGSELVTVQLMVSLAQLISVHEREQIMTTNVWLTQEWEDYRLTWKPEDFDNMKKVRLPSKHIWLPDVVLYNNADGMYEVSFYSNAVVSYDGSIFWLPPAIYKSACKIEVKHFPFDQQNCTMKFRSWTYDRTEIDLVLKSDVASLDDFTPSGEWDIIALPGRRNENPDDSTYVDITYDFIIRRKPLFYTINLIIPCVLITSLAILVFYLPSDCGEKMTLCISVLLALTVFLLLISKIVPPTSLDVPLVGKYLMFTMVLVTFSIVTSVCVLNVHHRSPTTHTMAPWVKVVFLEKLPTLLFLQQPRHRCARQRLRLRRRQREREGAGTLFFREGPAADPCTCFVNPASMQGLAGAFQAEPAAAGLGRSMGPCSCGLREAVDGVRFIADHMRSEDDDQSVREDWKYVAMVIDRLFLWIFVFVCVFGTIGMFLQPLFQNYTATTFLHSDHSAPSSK

C1=C(/c2cncnc2)CCCNCC/1 [TC299423, (E)-5-(pyrimidin-5-yl)-1,2,3,4,7,8-hexahydroazocine]
Ki (single component, cortical membranes): 0.24 ± 0.04 nM | Difference between Ki ([125I]epibatidine) and EC50 ([3H]dopamine release) (α4β2 nAChRs): ~500 fold
